From patent US8987195B2 (priority 2012, dated 2015)
Read-outs that look alike come from different tables or passages of the source.

Legend:
[1] = molecular target: HCV NS3/4A protease genotype 1b (Hepatitis C virus genotype 1b, UniProt P26663); assay: HCV NS3/4A protease time-resolved fluorescence (TRF) assay, Ki against genotype 1b; assay type: biochemical
Summary of the method: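 Enzyme 0.2 nM 1b / 0.4 nM A156T / 0.025 nM 3a; 30 min preinc. w/ cpd; 25 nM TRF peptide; 2.5 h RT; ex 340/em 615 time-delayed; 4-param IC50 → Ki = IC50/(1+[S]/KM).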

HCV genotype 1b replicon = assay: HCV replicon assay, genotype 1b replicon EC50; assay type: cell-based, Hepatitis C virus; conditions: Hepatitis C virus, read-out: EC50 [gt-1b]
Summary of the method: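 Compound dilution series incubated 24-48 h, G418 absent, with HCV genotype 1b replicon cell lines kept under G418 selection beforehand. Luciferase signal or replicon RNA, by ^32P hybridization/protection or TaqMan normalized to cyclophilin A, was measured after washing and lysis. Four-parameter fitting against DMSO control gave EC50.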

[2] = IC50 [gt-1b], NS3/4A protease TRF assay, genotype 1b enzyme 0.2 nM
[3] = IC50 [gt-1b] (nM), NS3/4A genotype 1b, enzyme 0.2 nM
[4] = IC50 [gt-1b] (nM), NS3/4A genotype 1b, enzyme 0.2 nM, K+ salt

SMILES | IC50 [1, 2] [nM] | EC50 (HCV genotype 1b replicon; HCV replicon, genotype 1b) [nM] | IC50 [1, 3] [nM] | EC50 (HCV genotype 1b replicon; genotype 1b replicon) [nM] | further results
COc1ccc2nc(C(F)F)c3c(c2c1)CC[C@]1(C[C@H]2C(=O)N[C@]4(C(=O)NS(=O)(=O)C5(C)CC5)C[C@H]4/C=C\CCCCC[C@H](NC(=O)OC(C)C)C(=O)N2C1)O3 [Example 446, propan-2-yl [(2R,6S,12Z,13aS,14aR,16aS)-5′-(difluoromethyl)-9′-methoxy-14a-{[(1-methylcyclopropyl)sulfonyl]carbamoyl}-5,16-dioxo-1,1′,2′,5,6,7,8,9,10,11,13a,14,14a,15,16,16a-hexadecahydrospiro[cyclopropa[e]pyrrolo[1,2-a][1,4]diazacyclopentadecine-2,3′-pyrano[2,3-c]quinolin]-6-yl]carbamate] | 0.013 | 1.17 | – | – | –
Cc1nc2ccccc2c2c1O[C@]1(CC2)C[C@H]2C(=O)N[C@]3(C(=O)NS(=O)(=O)C4(C)CC4)C[C@H]3/C=C\CCCCC[C@H](NC(=O)OC(CN(C)S(C)(=O)=O)C(C)(C)C)C(=O)N2C1 (single isomer, unassigned) [Example 259] | – | – | 0.007 | 24 | –
Cc1nc2ccccc2c2c1O[C@]1(CC2)C[C@H]2C(=O)N[C@]3(C(=O)NS(=O)(=O)C4(C)CC4)C[C@H]3/C=C\CCCCC[C@H](NCCC(C)(C)C)C(=O)N2C1 [Example 164, (2R,6S,12Z,13aS,14aR,16aS)-6-[(3,3-dimethylbutyl)amino]-5′-methyl-N-[(1-methylcyclopropyl)sulfonyl]-5,16-dioxo-1,1′,2′,6,7,8,9,10,11,13a,14,15,16,16a-tetradecahydrospiro[cyclopropa[e]pyrrolo[1,2-a][1,4]diazacyclopentadecine-2,3′-pyrano[2,3-c]quinoline]-14a(5H)-carboxamide] | – | – | 0.132 | 2.71 | –
COc1ccc2nc(C(F)(F)F)c3c(c2c1)[C@](C)(O)C[C@]1(C[C@H]2C(=O)N[C@]4(C(=O)NS(=O)(=O)C5(C)CC5)C[C@H]4/C=C\CCCCC[C@H](NC(=O)OC(C)(C)C)C(=O)N2C1)O3 [Example 489, tert-butyl [(1′R,2S,6S,12Z,13aS,14aR,16aS)-1′-hydroxy-9′-methoxy-1′-methyl-14a-{[(1-methylcyclopropyl)sulfonyl]carbamoyl}-5,16-dioxo-5′-(trifluoromethyl)-1,1′,2′,5,6,7,8,9,10,11,13a,14,14a,15,16,16a-hexadecahydrospiro[cyclopropa[e]pyrrolo[1,2-a][1,4]diazacyclopentadecine-2,3′-pyrano[2,3-c]quinolin]-6-yl]carbamate] | 0.016 | 4.22 | – | – | –
Cc1nc2ccc(C(F)(F)F)cc2c2c1O[C@]1(CC2)C[C@H]2C(=O)N[C@]3(C(=O)NS(=O)(=O)C4(C)CC4)C[C@H]3/C=C\CCCCC[C@H](NC(=O)OC3CCCC3)C(=O)N2C1 [Example 252, cyclopentyl [(2R,6S,12Z,13aS,14aR,16aS)-5′-methyl-14a-{[(1-methylcyclopropyl)sulfonyl]carbamoyl}-5,16-dioxo-9′-(trifluoromethyl)-1,1′,2′,5,6,7,8,9,10,11,13a,14,14a,15,16,16a-hexadecahydrospiro[cyclopropa[e]pyrrolo[1,2-a][1,4]diazacyclopentadecine-2,3′-pyrano[2,3-c]quinolin]-6-yl]carbamate] | – | – | 0.01 | 44.4 | –
COc1ccc2nc(C)c3c(c2c1)CC[C@]1(C[C@H]2C(=O)N[C@]4(C(=O)NS(=O)(=O)C5(C)CC5)C[C@H]4/C=C\CCCCC[C@H](NC(=O)OCC4(C(F)(F)F)CC4)C(=O)N2C1)O3 [Example 349, [1-(trifluoromethyl)cyclopropyl]methyl [(2R,6S,12Z,13aS,14aR,16aS)-9′-methoxy-5′-methyl-14a-{[(1-methylcyclopropyl)sulfonyl]carbamoyl}-5,16-dioxo-1,1′,2′,5,6,7,8,9,10,11,13a,14,14a,15,16,16a-hexadecahydrospiro[cyclopropa[e]pyrrolo[1,2-a][1,4]diazacyclopentadecine-2,3′-pyrano[2,3-c]quinolin]-6-yl]carbamate] | – | – | – | – | IC50 [1, 4]: 0.012 nM; EC50 (HCV genotype 1b replicon; genotype 1b replicon, K+ salt): 4.55 nM
CC(C)(C)OC(=O)N[C@H]1CCCCC/C=C\[C@@H]2C[C@@]2(C(=O)NS(=O)(=O)C2(C)CC2)NC(=O)[C@@H]2C[C@]3(CCc4c(c(C(F)(F)F)nc5ccc(Cl)cc45)O3)CN2C1=O [Example 378, tert-butyl [(2R,6S,12Z,13aS,14aR,16aS)-9′-chloro-14a-{[(1-methylcyclopropyl)sulfonyl]carbamoyl}-5,16-dioxo-5′-(trifluoromethyl)-1,1′,2′,5,6,7,8,9,10,11,13a,14,14a,15,16,16a-hexadecahydrospiro[cyclopropa[e]pyrrolo[1,2-a][1,4]diazacyclopentadecine-2,3′-pyrano[2,3-c]quinolin]-6-yl]carbamate] | 0.02 | 3.59 | – | – | –
Cc1nc2ccccc2c2c1O[C@]1(CC2)C[C@H]2C(=O)N[C@]3(C(=O)NS(=O)(=O)C4(C)CC4)C[C@H]3/C=C\CCCCC[C@H](NC(=O)OCC(F)F)C(=O)N2C1 [Example 121, 2,2-difluoroethyl [(2R,6S,12Z,13aS,14aR,16aS)-5′-methyl-14a-{[(1-methylcyclopropyl)sulfonyl]carbamoyl}-5,16-dioxo-1,1′,2′,5,6,7,8,9,10,11,13a,14,14a,15,16,16a-hexadecahydrospiro[cyclopropa[e]pyrrolo[1,2-a][1,4]diazacyclopentadecine-2,3′-pyrano[2,3-c]quinolin]-6-yl]carbamate] | – | – | 0.025 | 6.46 | –
Cc1nc2cc(F)ccc2c2c1O[C@]1(CC2)C[C@H]2C(=O)N[C@]3(C(=O)NS(=O)(=O)C4(C)CC4)C[C@H]3/C=C\CCCCC[C@H](NC(=O)OCC(C)C)C(=O)N2C1 [Example 340, 2-methylpropyl [(2R,6S,12Z,13aS,14aR,16aS)-8′-fluoro-5′-methyl-14a-{[(1-methylcyclopropyl)sulfonyl]carbamoyl}-5,16-dioxo-1,1′,2′,5,6,7,8,9,10,11,13a,14,14a,15,16,16a-hexadecahydrospiro[cyclopropa[e]pyrrolo[1,2-a][1,4]diazacyclopentadecine-2,3′-pyrano[2,3-c]quinolin]-6-yl]carbamate] | – | – | 0.03 | 3.23 | –
Cc1nc2ccccc2c2c1O[C@]1(CC2)C[C@H]2C(=O)N[C@]3(C(=O)NS(=O)(=O)C4(C)CC4)C[C@H]3/C=C\CCCCC[C@H](NC(=O)OC3CCCCC3)C(=O)N2C1 [Example 143, cyclohexyl [(2R,6S,12Z,13aS,14aR,16aS)-5′-methyl-14a-{[(1-methylcyclopropyl)sulfonyl]carbamoyl}-5,16-dioxo-1,1′,2′,5,6,7,8,9,10,11,13a,14,14a,15,16,16a-hexadecahydrospiro[cyclopropa[e]pyrrolo[1,2-a][1,4]diazacyclopentadecine-2,3′-pyrano[2,3-c]quinolin]-6-yl]carbamate] | – | – | – | – | IC50 [1, 4]: 0.009 nM; EC50 (HCV genotype 1b replicon; genotype 1b replicon, K+ salt): 1.18 nM
CC(C)(C)OC(=O)N[C@H]1CCCCC/C=C\[C@@H]2C[C@@]2(C(=O)NS(=O)(=O)C2(C)CC2)NC(=O)[C@@H]2C[C@]3(CCc4c(c(C(F)(F)F)nc5ccc(OCCO[Si](C)(C)C(C)(C)C)cc45)O3)CN2C1=O [Example 492, tert-butyl [(2R,6S,12Z,13aS,14aR,16aS)-9′-(2-{[tert-butyl(dimethyl)silyl]oxy}ethoxy)-14a-{[(1-methylcyclopropyl)sulfonyl]carbamoyl}-5,16-dioxo-5′-(trifluoromethyl)-1,1′,2′,5,6,7,8,9,10,11,13a,14,14a,15,16,16a-hexadecahydrospiro[cyclopropa[e]pyrrolo[1,2-a][1,4]diazacyclopentadecine-2,3′-pyrano[2,3-c]quinolin]-6-yl]carbamate] | 0.044 | 1.39 | – | – | –
Cc1nc2ccccc2c2c1O[C@]1(CC2)C[C@H]2C(=O)N[C@]3(C(=O)NS(=O)(=O)C4(C)CC4)C[C@H]3/C=C\CCCCC[C@H](N(CCC3CCCC3)CCC3CCCC3)C(=O)N2C1 [Example 162, (2R,6S,12Z,13aS,14aR,16aS)-6-[bis(2-cyclopentylethyl)amino]-5′-methyl-N-[(1-methylcyclopropyl)sulfonyl]-5,16-dioxo-1,1′,2′,6,7,8,9,10,11,13a,14,15,16,16a-tetradecahydrospiro[cyclopropa[e]pyrrolo[1,2-a][1,4]diazacyclopentadecine-2,3′-pyrano[2,3-c]quinoline]-14a(5H)-carboxamide] | – | – | 6.38 | 72 | –
Cc1nc2ccc(OC(F)F)cc2c2c1O[C@]1(CC2)C[C@H]2C(=O)N[C@]3(C(=O)NS(=O)(=O)C4(C)CC4)C[C@H]3/C=C\CCCCC[C@H](NC(=O)OC3CCCC3)C(=O)N2C1 [Example 268, cyclopentyl [(2R,6S,12Z,13aS,14aR,16aS)-9′-(difluoromethoxy)-5′-methyl-14a-{[(1-methylcyclopropyl)sulfonyl]carbamoyl}-5,16-dioxo-1,1′,2′,5,6,7,8,9,10,11,13a,14,14a,15,16,16a-hexadecahydrospiro[cyclopropa[e]pyrrolo[1,2-a][1,4]diazacyclopentadecine-2,3′-pyrano[2,3-c]quinolin]-6-yl]carbamate] | – | – | – | – | IC50 [1, 4]: 0.003 nM; EC50 (HCV genotype 1b replicon; genotype 1b replicon, K+ salt): 4.03 nM
